In brackets after ≈: the same amount, converted by molar mass. Entries after “also recorded” stand apart in the source; their conditions may differ. Where a name gives a salt, the structure may show the parent alone.

The values that follow come from article PMC8613358, “Next generation Glucose-1-phosphate thymidylyltransferase (RmlA) inhibitors: An extended SAR study to direct future design” (Bioorganic & Medicinal Chemistry, 2021).

One data set has as its target T1, P. aeruginosa RmlA (Pseudomonas aeruginosa, UniProt Q9HU22).
T1 construct: made in house
Description: In vitro RmlA inhibition assay (BIOMOL Green phosphate detection). The format is biochemical. Particulars: for inhibition at 10 µM: 10 μM inhibitor, 30 min, room temperature; for inhibition at 10 µM / IC50: 15 nM recombinant RmlA, 5 μM dTTP, 5 μM G-1-P; for LE (Ligand efficiency): LE = pIC50/number of heavy atoms; for LLE (Lipophilic ligand efficiency): LLE = pIC50 – cLogP; for IC50: ± SD, n = 3; for increase in potency compared to 1b: ratio of IC50 values vs 1b. How it is done: Each assay was performed in a 101 μL reaction volume containing 50 mM Tris (pH 7.4), 5 mM MgCl2, 1 mM dithiothreitol, 0.1 mM EDTA (pH 8.0), 0.1 mM EGTA (pH 8.0), 0.05% NP-40, 15 nM recombinant RmlA, 0.8 μg/ml pyrophosphatase, 5 μM dTTP and 5 μM G-1-P. The inhibitor was added to the plate (20 μL) followed by RmlA (30 μL). The reaction was initiated with the addition of dTTP (25 μL), G-1-P (25 μL) and pyrophosphatase (1 μL) as a mixture in one charge (51 μL total) and the assay was allowed to run for 30 min at room temperature. The reaction was quenched by addition of BIOMOL™ Green reagent (100 μL) and was allowed to develop before the absorbance of each well was measured at 620 nm.

The test system of another data set is M.tuberculosis (H37Rv). Also on record: method as in PMID 23138692. Particulars: cited from earlier work.

T1 sequence (Q9HU22 1-293): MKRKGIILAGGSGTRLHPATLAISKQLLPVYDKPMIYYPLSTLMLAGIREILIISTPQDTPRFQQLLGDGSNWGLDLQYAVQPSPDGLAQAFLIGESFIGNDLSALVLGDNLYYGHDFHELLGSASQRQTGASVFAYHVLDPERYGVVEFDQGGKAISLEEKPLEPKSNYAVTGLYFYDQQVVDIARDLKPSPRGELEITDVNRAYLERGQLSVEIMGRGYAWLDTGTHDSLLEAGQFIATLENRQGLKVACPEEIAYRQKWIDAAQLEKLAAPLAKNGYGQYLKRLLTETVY

`CNCCCNc1c(N(C)S(=O)(=O)c2ccccc2)c(=O)[nH]c(=O)n1Cc1ccc(Br)cc1` (as salt: TFA) [Compound 1b, N-(1-(4-bromobenzyl)-6-((3-(methylamino)propyl)amino)-2,4-dioxo-1,2,3,4-tetrahydropyrimidin-5-yl)-N-methylbenzenesulfonamide]: the melting point lay in the range of 294 to 297 °C.
`CNCCNc1c(N(C)S(=O)(=O)c2ccccc2)c(=O)[nH]c(=O)n1Cc1ccc(Br)cc1` (as salt: TFA) [Compound 1c, N-(1-(4-bromobenzyl)-6-((2-(methylamino)ethyl)amino)-2,4-dioxo-1,2,3,4-tetrahydropyrimidin-5-yl)-N-methylbenzenesulfonamide] gave a melting point of 283 to 286 °C.
For `CN(c1c(N)n(Cc2ccc(Br)cc2)c(=O)[nH]c1=O)S(=O)(=O)c1ccccc1` [Compound 1a], on P. aeruginosa RmlA, the inhibition at 10 µM came to 100%, the “LE (Ligand efficiency)” value is recorded as 0.37, the “LLE (Lipophilic ligand efficiency)” value was found to be 5.20 and the half-inhibitory concentration (IC50) came out at 0.034 ± 0.002 µM.
The corresponding values for `CNCCCNc1c(N(C)S(=O)(=O)c2ccccc2)c(=O)[nH]c(=O)n1Cc1ccc(Br)cc1` [Compound 1b, N-(1-(4-bromobenzyl)-6-((3-(methylamino)propyl)amino)-2,4-dioxo-1,2,3,4-tetrahydropyrimidin-5-yl)-N-methylbenzenesulfonamide] are 100%, 0.30, 4.30 and 0.86 ± 0.096 µM.
Take `CNCCNc1c(N(C)S(=O)(=O)c2ccccc2)c(=O)[nH]c(=O)n1Cc1ccc(Br)cc1` [Compound 1c, N-(1-(4-bromobenzyl)-6-((2-(methylamino)ethyl)amino)-2,4-dioxo-1,2,3,4-tetrahydropyrimidin-5-yl)-N-methylbenzenesulfonamide]: at P. aeruginosa RmlA, the “activity against P. aeruginosa RmlA (in words)” value is listed as “complete loss of activity; also recorded: lost the inhibitory activity” and the inhibition at 10 µM was 0%.
For the compound `CN(c1c(NCCCCN)n(Cc2ccc(Br)cc2)c(=O)[nH]c1=O)S(=O)(=O)c1ccccc1` [Compound 1d, N-(6-((4-aminobutyl)amino)-1-(4-bromobenzyl)-2,4-dioxo-1,2,3,4-tetrahydropyrimidin-5-yl)-N-methylbenzenesulfonamide], the melting point is 311 to 313 °C. In addition, at P. aeruginosa RmlA, the inhibition at 10 µM came to 100%, the “LE (Ligand efficiency)” value was 0.28, the “LLE (Lipophilic ligand efficiency)” value came to 4.40 and the “increase in potency compared to 1b” value is around 2.5 fold. The IC50 at P. aeruginosa RmlA is 0.303 ± 0.026 µM.
`CN(c1c(NCCCCCN)n(Cc2ccc(Br)cc2)c(=O)[nH]c1=O)S(=O)(=O)c1ccccc1` [Compound 1e, N-(6-((5-aminopentyl)amino)-1-(4-bromobenzyl)-2,4-dioxo-1,2,3,4-tetrahydropyrimidin-5-yl)-N-methylbenzenesulfonamide] had a melting point of 317 to 319 °C. Besides, on P. aeruginosa RmlA, the inhibition at 10 µM worked out at 100%, the “LE (Ligand efficiency)” value came to 0.27, the “LLE (Lipophilic ligand efficiency)” value worked out at 3.90 and the “increase in potency compared to 1b” value is recorded as around 2.5 fold. Besides, the half-maximal inhibitory concentration (IC50) at P. aeruginosa RmlA stood at 0.316 ± 0.023 µM.
In turn, `CN(c1c(NCCCn2cc(CN)nn2)n(Cc2ccccc2)c(=O)[nH]c1=O)S(=O)(=O)c1ccccc1` [Compound 1f] showed a melting point of 295 to 297 °C. On P. aeruginosa RmlA, the inhibition at 10 µM stood at 100%, the “LE (Ligand efficiency)” value amounted to 0.21, the “LLE (Lipophilic ligand efficiency)” value stood at 4.50 and the IC50 was determined as 2.47 ± 0.02 µM.
On to `CN(c1c(N)n(Cc2ccccc2)c(=O)[nH]c1=O)S(=O)(=O)c1ccccc1` [Compound 8a], for which the “MIC100 (M. tuberculosis)” value in the data set with M.tuberculosis (H37Rv) is 100 µg/mL (≈ 259 µM).
